From US20260174778A1, “SULFONAMIDE COMPOUND, AND PREPARATION METHOD THEREFOR AND USE THEREOF” (SHANGHAI HENLIUS BIOTECH, INC., priority 2023, published 2026)

Tested on: breast cancer cell line ZR-75-1
Assay: Inhibition of proliferation of breast cancer cell line ZR-75-1 (CellTiter-Glo)
Assay type: cell-based
Conditions: Homo sapiens, 240 h, proliferation of ZR-75-1 cells, 10 days of incubation, read-out: IC50 (KAT6A)

Row | Compound | IC50 [nM]
1 | COc1ccc2c(c1S(=O)(=O)Nc1noc3cc(Cn4cccn4)c(F)c(OC)c13)OCCO2 [Compound 28, N-(6-((1H-Pyrazol-1-yl)methyl)-5-fluoro-4-methoxybenzo[d]isoxazol-3-yl)-6-methoxy-2,3-dihydrobenzo[b][1,4]dioxine-5-sulfonamide] | < 0.5
2 | COc1ccc2c(c1S(=O)(=O)Nc1noc3cc(Cn4cccn4)c(F)c(OC)c13)OCCC2=O [Compound 42, N-(6-((1H-Pyrazol-1-yl)methyl)-5-fluoro-4-methoxybenzo[d]isoxazol-3-yl)-7-methoxy-4-oxochromane-8-sulfonamide] | < 0.5
3 | COc1ccc2c(c1S(=O)(=O)Nc1noc3cc(Cn4cccn4)c(F)c(OC)c13)OCC=C2 [Compound 101, N-(6-((1H-Pyrazol-1-yl)methyl)-5-fluoro-4-methoxybenzo[d]isoxazol-3-yl)-7-methoxy-2H-chromene-8-sulfonamide] | < 0.5
4 | COc1ccc2c(c1S(=O)(=O)Nc1noc3cc(Cn4cccn4)c(F)c(OC)c13)OCCN2C [Compound 109, N-(6-((1H-Pyrazol-1-yl)methyl)-5-fluoro-4-methoxybenzo[d]isoxazol-3-yl)-7-methoxy-4-methyl-3,4-dihydro-2H-benzo[b][1,4]oxazine-8-sulfonamide] | < 0.5
5 | COc1ccccc1S(=O)(=O)Nc1noc2cc(Cn3cccn3)cc(OC)c12 [PF-8144, reference compound] | 0.5 to 2
